Three compounds from US6455593B1, “Method of dynamic retardation of cell cycle kinetics to potentiate cell damage” (priority 1995, dated 2002) can be followed below.

The structures appear in SMILES notation. Where two headings read alike, the source gives them in different places.

One experiment concerns Daudi cells. Briefly: MIS MTT growth inhibition assay. In kind it is cell-based, human. The text has this:
(§1) A dye, 3-[4,5-dimethylthiazol-2-yl]-2,5-diphenyl-tetrazolium bromide (MTT), was used as a chromogenic indicator of the metabolically active cell mass. Viable cells metabolize the dye and accumulate a reduced formazan product (blue color) which is solubilized for colorimetry. Mossman T, J. Immunol. Methods 5:55-63 (1983); Li L and Lau B H S, In Vitro Cell Dev. Biol. 29A:531-536 (1993). The MTT assay has been established as useful for measuring either growth inhibition or population killing. Plowman, supra. The MTT method is ideal for cells tested in suspension growth, and can also be used for some cells growing in monolayers. […] Alley, supra; Hofs, supra; Wilson J K et al., Br. J. Cancer 62:189-94 (1990); Plowman, supra.
(§2) Thirty μl of 0.5% MTT in phosphate buffered saline was added to each microculture well at the appropriate time. After incubation at 37° C. for 3 hr, 120 μl of an aqueous solution of 10 % SDS with 0.01 N HCl was added to release and dissolve formazan product. This was accomplished by overnight incubation of the plate at 37° C. After careful mixing of the microwell contents by placing the plates on an orbital shaker for 5 minutes the absorbencies were quantitated by spectrophotometry at 570 nm with a Ceres UV 900 HDI microwell plate reader (from Biotek Instruments Inc, Winooski, Vt. 05404-0998). Absorbance data was normalized to a blank well containing all reagents without cells and was collected semi-automatically.
(§3) Flat-bottom 96-well plates of tissue culture quality (Corning or Costar) were set up with two-fold serial dilutions of each agent to be tested, e.g., the RA and TCI, using a multichannel pipettor with adjustable volume, e.g., Costar or Rainin, to perform serial mixing. This set-up is diagrammed in FIG. 12. […] In each plate, a total of 59 wells then contained bivariate agent combinations, the bivariate serial dilutions.
(In general: Formazan colour is commonly taken as a measure of viable cells.)

Experiment [1] deals with human malignant lymphoma cells (U937). In words: Tumorigenic assay in athymic nude mice. The format is in vivo. The note with it: U937 cells treated with dThd 0.2 mM for 4 hr followed by STSP 25 nM for 7 hr before subcutaneous inoculation; 14 days. The text has this:
The biologic behavior of xenografts of human malignant cells in immunosuppressed mice can approximate natural growth conditions in a patient, since the cells receive a local supply of plasma nutrients and can survive for several weeks. Thus, inoculated cells may survive in a latent state prior to growth, a condition not readily duplicated in vitro. Inoculum size is critical for observation of tumor growth within a practical time frame. […] After treatment, cells were sedimented and resuspended in serum-free RPMI 1640. In each group four athymic Nu/Nu weanling mice of mean weight 17 gm were inoculated subcutaneously into both subscapular regions with 0.1 ml of RPMI 1640 containing 10^7 cells (viability>90%). Formation of tumors in these subcutaneous sites was observed during the next 14 days. One control mouse died prematurely. At 14 days, all animals were sacrificed, tumors were photographed, tumors were carefully dissected, and tumor weights were recorded. Tumors were verified histologically.

For experiment [2], the system named is U937 cells. In words: Pilot test of enhancement of gamma radiation damage. The format is cell-based, human. The note with it: STSP as RA, approximately 25 nM, pilot data.
Text: Serial two-fold changes in calibrated radioactive dosages are combined with two-fold serial dilutions of an agent being tested as an RA or a TCI.
Experiment [3] relates to U937 cells. In words: MIS LDH release assay (CytoTox96). The note with it: STSP for 14 H, total 18 H, STSP nM: 100,50,25,13,6,3, r16 dThd alone. In kind it is cell-based, human. The protocol: The MIS set up was identical to that described in Example 8. The relative activity of LDH released into supernatant from each microculture well was detected by a coupled enzymatic assay, Decker et al., J. Immunol. Methods 15:61 (1988), in which the chromogen 2-(p-iodophenyl)-3-(p-nitrophenyl)-5-phenyl tetrazolium chloride (INT) is converted to a red INT-formazan product by NADH in the presence of diaphorase.
In this procedure, after incubation and at the time for assay, 50 μl of fresh medium was added to each microculture well prior to assay and microcultures in the entire 96 well plate were simultaneously sedimented at 400×G for 10 min in a Becton Dickinson refrigerated table top centrifuge using a plate carrier. A 50 μl sample from each microwell then was removed carefully and transferred to a corresponding well in a clean 96 well plate. LDH activity was quantitated by means of the CytoTox96 assay, Promega Corp., Madison, Wis. 53711, according to the manufacturers instructions. In tests to determine the total LDH in each microwell, 10 μl of lysing reagent (from the CytoTox96 assay kit) was added to the fixed 100 μl volume with cells and medium prior to the above step. […].
These formulas use […] in which positive numbers are obtained as compared to % inhibition used above. […] Particularly for the latter purpose, all of the cells in each microculture well were totally lysed with Promega lysing reagent prior to the calorimetric measurement.
In general terms: LDH leaks from cells whose membrane has failed.

Another experiment deals with pRb. Briefly: Immunoblot of pRb phosphorylation status. The format is cell-based, human. The protocol:
Whole cell extracts (U937 cells) were prepared in an SDS 2×sample buffer (100 mM Tris.HCl (pH 6.8), 200 mM DTT and 4% sodium dodecyl sulfate) and boiled for 5 minutes. Protein concentrations were assayed, and samples of 100 μg of protein per lane were applied to 7.5% SDS-polyacrylamide gels (PAGE). Resolved proteins were transferred to Immobilon P (Millipore), and pRb was localized with monoclonal anti-pRb (Santa Cruz, IF8) and a chemiluminescence procedure (Amersham ECL). Samples for flow cytometry were prepared and flow cytometry was performed as described in Example 2.

Experiment [4] relates to p34^cdc2, c-myc, JNK, Erk-2. Briefly: Immunoblot and kinase activity assays (CDC2, c-myc, MAP kinases). In kind it is cell-based, human. The note with it: U937, STSP ±dThd or dThd alone. (In general: A western blot detects proteins with antibodies after separation by electrophoresis.)
Text: The cyclin-dependent kinase p34^cdc2 was detected with antibody clone #1 from Signal Transduction Laboratories. For detection of histone phosphorylation activity p34^cdc2 was immunoprecipitated with monoclonal antibody (Santa Cruz, #17) using protein A sepharose and reacted with H1 substrate (Boehringer Mannheim) in the presence of γ^32P-ATP Aersham). […] MAP kinases were detected by immnunoblotting with monoclonal antibodies from Pharmingen (San Diego, Calif.). For assay of enzymatic activities, MAP kinases were immunoprecipitated as above with polyclonal antibody to erk2 or with a GST-JNK substrate for JNK. The substrate for erk2 was myelin basic protein substrate and for JNK was GST-JNK (Pharmingen). The protooncogene product c-myc was detected by immunoblotting with an antibody from Oncogene Sciences.
Experiment [5] deals with Burkitt's lymphoma cell line Raji. Briefly: MIS MTT growth inhibition assay. The format is cell-based, human. Particulars: Raji cells (Tk deficient).
A further experiment has as its system HL-60 cells. In words: MIS MTT growth inhibition assay. In kind it is cell-based, human.
Text: as §1, §2, §3

Setting [6] is: Homo sapiens, 4 h, read-out: MTT % inhibition, Aph only.
[7] abbreviates: Homo sapiens, HL-60, 2 h, dThd […] 2 H, STSP 0, read-out: MTT % inhibition, dThd only.

The term inhibition denotes how much of the control response was suppressed. Take `C[C@@]1(CO)[C@H](O)CC[C@@]2(C)[C@H]1CC[C@H]1C[C@@H]3C[C@@]12CC[C@]3(O)CO` [Aph, aphidicolin]: the “combined results ratio, Aph only (baseline line)” value in the experiment on Daudi cells (Aph alone, every Aph concentration 8.00-0.02 ug/ml) was found to be 1.0. Also, in the experiment with Daudi cells (setting [6]), the inhibition at 0.02 µg/mL was 0%, the inhibition at 0.03 µg/mL came to 1%, the inhibition at 0.06 µg/mL was 4% and the inhibition at 0.5 µg/mL is 8%. Moreover, in the experiment with Daudi cells (setting [6]), the inhibition at 1 µg/mL was determined as 8%, the inhibition at 2 µg/mL was found to be 9%, the inhibition at 4 µg/mL stood at 16% and the inhibition at 8 µg/mL is 28%.

Consider `CN[C@@H]1C[C@H]2O[C@@](C)([C@@H]1OC)n1c3ccccc3c3c4c(c5c6ccccc6n2c5c31)C(=O)NC4` [STSP, staurosporine], for which, in experiment [1], the Tumor formation result is “developed no tumors”. In addition, the “Effect on gamma radiation damage” value in the experiment with U937 cells [2] is listed as “an enhancing effect upon damage produced by a single exposure of the U937 cells to 2.5 to 10 Gy of gamma radiation”.

As to `Cc1cn([C@H]2C[C@H](O)[C@@H](CO)O2)c(=O)[nH]c1=O` [dThd, deoxythymidine], the “LDH release multiple, dThd 0.02 mM” value with U937 cells [3] (dThd 0.02 mM for 4 H) is listed as 1.20. Besides, in the experiment on U937 cells [3] (dThd 0.06 mM for 4 H), the “LDH release multiple, dThd 0.06 mM” value turned out to be 1.14. Moreover, in the experiment with U937 cells [3] (dThd 0.09 mM for 4 H), the “LDH release multiple, dThd 0.09 mM” value is reported as 1.19. Moreover, the “LDH release multiple, dThd 3.0 mM” value with U937 cells [3] (dThd 3.0 mM for 4 H) is 3.61. For the same compound, the pRb phosphorylation result in the experiment with pRb (0.2 mM dThd) is given as “did not appear to be grossly inhibited”. Further, the pRb phosphorylation entry in the experiment with pRb (3 mM dThd, 4 or 11 hours) is given as “pRb phosphorylation was inhibited”. Further, the “Phosphorylation of CDC2” value in experiment [4] is given as “not by dThd alone”. Further, in experiment [5], the “IC40, growth inhibition” value is listed as over 4 mM. The inhibition at 10 µM with HL-60 cells (Homo sapiens, HL-60, 2 h, dThd 0.01 mM 2 H, STSP 0, read-out: MTT % inhibition, dThd only) worked out at 2%. Moreover, the inhibition at 10 µM with HL-60 cells (Homo sapiens, HL-60, 2 h, dThd 0.01 mM (column 8, lowest) 2 H, STSP 0, read-out: MTT % inhibition, dThd only) worked out at 5%. Also, in the experiment on HL-60 cells (Homo sapiens, HL-60, 2 h, dThd 0.02 mM 2 H, STSP 0, read-out: MTT % inhibition, dThd only), the inhibition at 20 µM was 7%. The inhibition at 50 µM with HL-60 cells (Homo sapiens, HL-60, 2 h, dThd 0.05 mM 2 H, STSP 0, read-out: MTT % inhibition, dThd only) was found to be 10%. For the same compound, the inhibition at 90 µM in the experiment with HL-60 cells (Homo sapiens, HL-60, 2 h, dThd 0.09 mM 2 H, STSP 0, read-out: MTT % inhibition, dThd only) amounted to 13%. Further, in the experiment on HL-60 cells (Homo sapiens, HL-60, 2 h, dThd 3.00 mM 2 H, STSP 0, read-out: MTT % inhibition, dThd only), the inhibition at 3000 µM came to 59%. In the experiment on HL-60 cells (setting [7]), the inhibition at 190 µM was found to be 20%, the inhibition at 380 µM is 28%, the inhibition at 750 µM came out at 40% and the inhibition at 1500 µM was 49%. Also, in the experiment with HL-60 cells (dThd alone, dThd 3.00-0.09 mM), the “combined results ratio, dThd only (baseline line)” value worked out at 1.0.
